Experimental data published in PubChem BioAssay AID328 (DTP/NCI, 2004).
Several values for one entry are separate records, joined by “and”; a condition that tells them apart may be missing. Identical values can stand only once. Toxic doses and inconclusive results are not listed.

Test system: BDF1 mice, P388 leukemia ip, median survival T/C
Test: NCI In Vivo Anticancer Drug Screen. Data for tumor model P388 Leukemia (intraperitoneal) in B6D2F1 (BDF1) mice
Conditions: endpoint: median survival time, higher = longer survival
Summary of the method: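 Antitumour effect was judged in vivo: survival in drug-treated mice, normalised to that of vehicle-dosed controls, gives the reported T/C.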

COC(=O)C[C@](O)(CCC(C)(C)O)C(=O)O[C@@H]1C(OC)=C[C@]23CCCN2CCc2cc4c(cc2[C@H]13)OCO4
T/C (dose: 0.22 mg/kg/injection, schedule: Q01DX009 (ip), vehicle: saline): 190 % of control
T/C (dose: 0.25 mg/kg/injection, schedule: Q01DX009 (ip), vehicle: saline): 172 % of control and 209 % of control and 215 % of control
T/C (dose: 0.25 mg/kg/injection, schedule: Q03HX016 (ip), vehicle: saline): 163 % of control
T/C (dose: 0.25 mg/kg/injection, schedule: Q03HX024 (ip), vehicle: saline): 177 % of control
T/C (dose: 0.33 mg/kg/injection, schedule: Q01DX009 (ip), vehicle: saline): 204 % of control
T/C (dose: 0.5 mg/kg/injection, schedule: Q01DX006 (iv), vehicle: saline): 110 % of control
T/C (dose: 0.5 mg/kg/injection, schedule: Q01DX009 (ip), vehicle: water): 261 % of control and 294 % of control
T/C (dose: 0.5 mg/kg/injection, schedule: Q03HX008 (ip), vehicle: saline): 172 % of control
T/C (dose: 0.5 mg/kg/injection, schedule: Q03HX016 (ip), vehicle: saline): 163 % of control
T/C (dose: 0.5 mg/kg/injection, schedule: Q03HX024 (ip), vehicle: saline): 236 % of control
T/C (dose: 1.0 mg/kg/injection, schedule: Q01DX009 (ip), vehicle: water): 350 % of control and 405 % of control
T/C (dose: 1.0 mg/kg/injection, schedule: Q01DX009 (sc), vehicle: saline): 165 % of control
T/C (dose: 1.0 mg/kg/injection, schedule: Q01DX010 (oral), vehicle: saline): 115 % of control
T/C (dose: 1.0 mg/kg/injection, schedule: Q03HX016 (ip), vehicle: saline): 109 % of control
T/C (dose: 1.0 mg/kg/injection, schedule: Q03HX024 (ip), vehicle: saline): 100 % of control
T/C (dose: 2.0 mg/kg/injection, schedule: Q01DX006 (iv), vehicle: saline): 205 % of control
T/C (dose: 2.0 mg/kg/injection, schedule: Q01DX009 (ip), vehicle: water): 205 % of control
T/C (dose: 2.0 mg/kg/injection, schedule: Q01DX009 (oral), vehicle: saline): 210 % of control
T/C (dose: 2.0 mg/kg/injection, schedule: Q01DX009 (sc), vehicle: saline): 215 % of control
T/C (dose: 2.0 mg/kg/injection, schedule: Q01DX010 (oral), vehicle: saline): 160 % of control
T/C (dose: 2.0 mg/kg/injection, schedule: Q01DX010 (sc), vehicle: saline): 235 % of control
T/C (dose: 2.0 mg/kg/injection, schedule: Q04DX003 (ip), vehicle: saline): 154 % of control
T/C (dose: 4.0 mg/kg/injection, schedule: Q01DX009 (ip), vehicle: saline): 150 % of control
T/C (dose: 4.0 mg/kg/injection, schedule: Q01DX010 (sc), vehicle: saline): 100 % of control
T/C (dose: 8.0 mg/kg/injection, schedule: Q01DX001 (ip), vehicle: saline): 118 % of control
T/C (dose: 8.0 mg/kg/injection, schedule: Q01DX010 (oral), vehicle: saline): 90 % of control
T/C (dose: 8.0 mg/kg/injection, schedule: Q04DX003 (ip), vehicle: saline): 104 % of control
T/C (dose: 8.0 mg/kg/injection, schedule: Q08DX002 (ip), vehicle: saline): 100 % of control
